In brackets after ≈: the same amount, converted by molar mass.
Columns and labels:
[1] = test system: Mycobacterium tuberculosis; experiment: Antimicrobial activity against Mycobacterium tuberculosis H37Rv by microplate alamar blue assay; type: functional
[2] = test system: Mycobacterium tuberculosis; experiment: Antimicrobial activity against Mycobacterium tuberculosis H37Rv at 6.25 ug/ml by microplate alamar blue assay; type: functional
Vero = experiment: Cytotoxicity against african green monkey Vero cells after 72 hrs by MTT assay; type: cell-based, Chlorocebus sabaeus; settings: Chlorocebus sabaeus, Vero, 72 h; read-out: IC50
[3] = Selectivity index, ratio of IC50 for african green monkey Vero cells to MIC for Mycobacterium tuberculosis H37Rv; type: functional

Row | SMILES | MIC [1] | inhibition at 6.25 µg/mL [2] | IC50 (Vero) | Ratio [3]
1 | CCOC(=O)c1c(-c2ccccc2)[n+]([O-])c2ccc(Cl)cc2[n+]1[O-] | 1.56 µg/mL (≈ 4.52 µM) | 90% | 3.33 µg/mL (≈ 9.66 µM) | 2.13
2 | CCOC(=O)c1c(-c2ccccc2)[n+]([O-])c2ccc(OC)cc2[n+]1[O-] | 6.25 µg/mL (≈ 18.4 µM) | 90% | 17.8 µg/mL (≈ 52.2 µM) | 2.84
3 | CCOC(=O)c1c(-c2ccccc2)[n+]([O-])c2cc(C)c(C)cc2[n+]1[O-] | 6.25 µg/mL (≈ 18.5 µM) | 90% | > 10 µg/mL | >1.6
4 | CCOC(=O)c1c(-c2ccccc2)[n+]([O-])c2ccccc2[n+]1[O-] | 1.56 µg/mL (≈ 5.03 µM) | 90% | 24.8 µg/mL (≈ 79.8 µM) | 15.87
5 | CCOC(=O)c1c(-c2ccc(Br)cc2)[n+]([O-])c2ccccc2[n+]1[O-] | 0.39 µg/mL (≈ 1 µM) | 90% | 6.12 µg/mL (≈ 15.7 µM) | 15.69
6 | CCOC(=O)c1c(-c2ccc(F)cc2)[n+]([O-])c2ccccc2[n+]1[O-] | 0.39 µg/mL (≈ 1.19 µM) | 90% | 8.9 µg/mL (≈ 27.1 µM) | 22.82
7 | CCOC(=O)c1c(-c2ccc(Cl)cc2)[n+]([O-])c2ccccc2[n+]1[O-] | 0.39 µg/mL (≈ 1.13 µM) | 90% | 4.8 µg/mL (≈ 13.9 µM) | 12.31
8 | CCOC(=O)c1c(-c2ccc(C)cc2)[n+]([O-])c2ccccc2[n+]1[O-] | 0.78 µg/mL (≈ 2.4 µM) | 90% | 11.3 µg/mL (≈ 34.8 µM) | 14.47
9 | CCOC(=O)c1c(-c2ccc(C(F)(F)F)cc2)[n+]([O-])c2ccccc2[n+]1[O-] | 1.56 µg/mL (≈ 4.12 µM) | 90% | 2.24 µg/mL (≈ 5.92 µM) | 1.44
10 | COC(=O)c1ccc(-c2c(C#N)[n+]([O-])c3cc(C)c(C)cc3[n+]2[O-])cc1 | 6.25 µg/mL (≈ 17.9 µM) | 90% | 9.66 µg/mL (≈ 27.7 µM) | 1.5
11 | CCOC(=O)c1c(-c2ccc([N+](=O)[O-])cc2)[n+]([O-])c2ccccc2[n+]1[O-] | 0.78 µg/mL (≈ 2.2 µM) | 90% | 2.26 µg/mL (≈ 6.36 µM) | 2.9
12 | COC(=O)c1ccc(-c2c(C#N)[n+]([O-])c3cc(OC)ccc3[n+]2[O-])cc1 | 3.13 µg/mL (≈ 8.91 µM) | 90% | 3.9 µg/mL (≈ 11.1 µM) | 1.2
13 | CCOC(=O)c1c(-c2ccccc2)[n+]([O-])c2ccc(C)cc2[n+]1[O-] | 1.56 µg/mL (≈ 4.81 µM) | 90% | 18.6 µg/mL (≈ 57.4 µM) | 11.93
14 | CCOC(=O)c1c(-c2ccccc2)[n+]([O-])c2cc(F)c(F)cc2[n+]1[O-] | 1.56 µg/mL (≈ 4.5 µM) | 90% | 0.38 µg/mL (≈ 1.1 µM) | 0.24
15 | CCOC(=O)c1c(-c2ccc(OC)cc2)[n+]([O-])c2ccccc2[n+]1[O-] | 1.56 µg/mL (≈ 4.58 µM) | 90% | 7.65 µg/mL (≈ 22.5 µM) | 4.9
16 | CO[C@H]1/C=C/O[C@@]2(C)Oc3c(C)c(O)c4c(O)c(c(/C=N/N5CCN(C)CC5)c(O)c4c3C2=O)NC(=O)/C(C)=C\C=C\[C@H](C)[C@H](O)[C@@H](C)[C@@H](O)[C@@H](C)[C@H](OC(C)=O)[C@@H]1C [RIFAMPIN] | 0.125 µg/mL (≈ 0.152 µM) | 90% | > 100 µg/mL | >800
